Structures are written as SMILES. Converted amounts (≈) assume the structure as drawn. Like-named read-outs stand apart in the source and are kept apart here.

Data set [1] can be described thus: physchem. Particulars: 25 °C, thermodynamic from solid.
Data set [2] is described as follows: Solubility in simulated intestinal fluids (FaSSIF/FeSSIF). Conditions: 25 °C, thermodynamic from solid.
Setting [3] is: 0.1N HCl, 1.0% DMSO, 24-hour incubation at ambient temperature, maximum theoretical 100 μM, first value of the cell.
Setting [4] is: 1×PBS buffer (pH 7.4), 1.0% DMSO, 24-hour incubation at ambient temperature, maximum theoretical 100 μM, second value of the cell.
Setting [5] is: fasted state simulated intestinal fluid (FaSSIF), fassif.
The mark [6] stands for this setting: fed state simulated intestinal fluid (FeSSIF), fessif.

As usually defined, the solubility is how much of the substance goes into solution per volume. Higher therefore signals much dissolved substance. Turning to `CC(C)(C#Cc1ccc(-c2ccc(Cl)c3c(N(C(=O)O[C@H](CNC(=O)OCOP(=O)(O)O)CC(=O)O)S(C)(=O)=O)nn(CC(F)(F)F)c23)c([C@H](Cc2cc(F)cc(F)c2)NC(=O)Cn2nc(C(F)(F)F)c3c2C(F)(F)[C@@H]2C[C@H]32)n1)S(C)(=O)=O` [Compound 136, (S)-3-(((4-chloro-7-(2-((S)-1-(2-((3bS,4aR)-5,5-difluoro-3-(trifluoromethyl)-3b,4,4a,5-tetrahydro-1H-cyclopropa[3,4]cyclopenta[1,2-c]pyrazol-1-yl)acetamido)-2-(3,5-difluorophenyl)ethyl)-6-(3-methyl-3-(methylsulfonyl)but-1-yn-1-yl)pyridin-3-yl)-1-(2,2,2-trifluoroethyl)-1H-indazol-3-yl)(methylsulfonyl)carbamoyl)oxy)-4-((((phosphonooxy)methoxy)carbonyl)amino)butanoic acid], the solubility in data set [1] (fassif) was determined as 1.49 mg/mL (≈ 1180 µM); in data set [1] (fessif), 2.91 mg/mL (≈ 2300 µM). In addition, the “pH 2 solubility” value (pH 2) is recorded as 3/57 μM. Also, the “pH 7 solubility” value (pH 7.4) was 3/57 μM.
Regarding `CC(C)(C#Cc1ccc(-c2ccc(Cl)c3c(N(C(=O)OCCNC(=N)N)S(C)(=O)=O)nn(CC(F)(F)F)c23)c([C@H](Cc2cc(F)cc(F)c2)NC(=O)Cn2nc(C(F)(F)F)c3c2C(F)(F)[C@@H]2C[C@H]32)n1)S(C)(=O)=O` [Compound 123, 2-guanidinoethyl (4-chloro-7-(2-((S)-1-(2-((3bS,4aR)-5,5-difluoro-3-(trifluoromethyl)-3b,4,4a,5-tetrahydro-1H-cyclopropa[3,4]cyclopenta[1,2-c]pyrazol-1-yl)acetamido)-2-(3,5-difluorophenyl)ethyl)-6-(3-methyl-3-(methylsulfonyl)but-1-yn-1-yl)pyridin-3-yl)-1-(2,2,2-trifluoroethyl)-1H-indazol-3-yl)(methylsulfonyl)carbamate], under setting [3], the “pH 2 solubility” value is given as 78 μM. Further, the “pH 7 solubility” value under setting [4] was 71 μM. Besides, the solubility in data set [2] (setting [5]) was 0.12 mg/mL (≈ 109 µM); in data set [2] (setting [6]), 0.153 mg/mL (≈ 139 µM).
As to `CC(C)(C#Cc1ccc(-c2ccc(Cl)c3c(N(C(=O)OCCC(C(=O)O)C(=O)O)S(C)(=O)=O)nn(CC(F)(F)F)c23)c([C@H](Cc2cc(F)cc(F)c2)NC(=O)Cn2nc(C(F)(F)F)c3c2C(F)(F)[C@@H]2C[C@H]32)n1)S(C)(=O)=O` [Compound 126, 2-(2-(((4-chloro-7-(2-((S)-1-(2-((3bS,4aR)-5,5-difluoro-3-(trifluoromethyl)-3b,4,4a,5-tetrahydro-1H-cyclopropa[3,4]cyclopenta[1,2-c]pyrazol-1-yl)acetamido)-2-(3,5-difluorophenyl)ethyl)-6-(3-methyl-3-(methylsulfonyl)but-1-yn-1-yl)pyridin-3-yl)-1-(2,2,2-trifluoroethyl)-1H-indazol-3-yl)(methylsulfonyl)carbamoyl)oxy)ethyl)malonic acid], the “pH 2 solubility” value under setting [3] turned out to be 1 μM. For the same compound, the “pH 7 solubility” value under setting [4] is given as 5 μM. The solubility in data set [2] (setting [5]) was 0.021 mg/mL (≈ 18.4 µM); in data set [2] (setting [6]), 0.218 mg/mL (≈ 191 µM).
For `CN(CCN(CCC(=O)O)C(=O)OCOP(=O)(O)O)C(=O)N(c1nn(CC(F)(F)F)c2c(-c3ccc(C#CC(C)(C)S(C)(=O)=O)nc3[C@H](Cc3cc(F)cc(F)c3)NC(=O)Cn3nc(C(F)(F)F)c4c3C(F)(F)[C@@H]3C[C@H]43)ccc(Cl)c12)S(C)(=O)=O` [Compound 86, 3-((2-(3-(4-chloro-7-(2-((S)-1-(2-((3bS,4aR)-5,5-difluoro-3-(trifluoromethyl)-3b,4,4a,5-tetrahydro-1H-cyclopropa[3,4]cyclopenta[1,2-c]pyrazol-1-yl)acetamido)-2-(3,5-difluorophenyl)ethyl)-6-(3-methyl-3-(methylsulfonyl)but-1-yn-1-yl)pyridin-3-yl)-1-(2,2,2-trifluoroethyl)-1H-indazol-3-yl)-1-methyl-3-(methylsulfonyl)ureido)ethyl)(((phosphonooxy)methoxy)carbonyl)amino)propanoic acid], in that order: 1 μM, 100 μM, 2.02 mg/mL (≈ 1560 µM) and 1.47 mg/mL (≈ 1130 µM).
For `CC(C)(C#Cc1ccc(-c2ccc(Cl)c3c(N(C(=O)OCCCC(=O)O)S(C)(=O)=O)nn(CC(F)(F)F)c23)c([C@H](Cc2cc(F)cc(F)c2)NC(=O)Cn2nc(C(F)(F)F)c3c2C(F)(F)[C@@H]2C[C@H]32)n1)S(C)(=O)=O` [Compound 113], in that order: 1 μM, 5 μM, 0.005 mg/mL (≈ 4.55 µM) and 0.008 mg/mL (≈ 7.28 µM).
For the compound `CC(C)(C#Cc1ccc(-c2ccc(Cl)c3c(N(COC(=O)C(=O)O)S(C)(=O)=O)nn(CC(F)(F)F)c23)c([C@H](Cc2cc(F)cc(F)c2)NC(=O)Cn2nc(C(F)(F)F)c3c2C(F)(F)[C@@H]2C[C@H]32)n1)S(C)(=O)=O` [Compound 20, 2-((N-(4-chloro-7-(2-((S)-1-(2-((3bS,4aR)-5,5-difluoro-3-(trifluoromethyl)-3b,4,4a,5-tetrahydro-1H-cyclopropa[3,4]cyclopenta[1,2-c]pyrazol-1-yl)acetamido)-2-(3,5-difluorophenyl)ethyl)-6-(3-methyl-3-(methylsulfonyl)but-1-yn-1-yl)pyridin-3-yl)-1-(2,2,2-trifluoroethyl)-1H-indazol-3-yl)methylsulfonamido)methoxy)-2-oxoacetic acid], the “pH 2 solubility” value under setting [3] came to 13 μM. For the same compound, the “pH 7 solubility” value under setting [4] is on record as 100 μM. The solubility in data set [2] (setting [5]) is 0.448 mg/mL (≈ 419 µM); in data set [2] (setting [6]) it was 0.454 mg/mL (≈ 424 µM).
As to `CC(C)(C#Cc1ccc(-c2ccc(Cl)c3c(N(C(=O)N[C@@H](CO)C(=O)O)S(C)(=O)=O)nn(CC(F)(F)F)c23)c([C@H](Cc2cc(F)cc(F)c2)NC(=O)Cn2nc(C(F)(F)F)c3c2C(F)(F)[C@@H]2C[C@H]32)n1)S(C)(=O)=O` [Compound 58, ((4-chloro-7-(2-((S)-1-(2-((3bS,4aR)-5,5-difluoro-3-(trifluoromethyl)-3b,4,4a,5-tetrahydro-1H-cyclopropa[3,4]cyclopenta[1,2-c]pyrazol-1-yl)acetamido)-2-(3,5-difluorophenyl)ethyl)-6-(3-methyl-3-(methylsulfonyl)but-1-yn-1-yl)pyridin-3-yl)-1-(2,2,2-trifluoroethyl)-1H-indazol-3-yl)(methylsulfonyl)carbamoyl)-L-serine], the “pH 2 solubility” value under setting [3] came out at 1 μM. Besides, the “pH 7 solubility” value under setting [4] turned out to be 8 μM. The solubility was 0.813 mg/mL (≈ 740 µM) in data set [2] (setting [5]) and 0.12 mg/mL (≈ 109 µM) in data set [2] (setting [6]).
On the same counts, the results for `CC(C)(C#Cc1ccc(-c2ccc(Cl)c3c(N(C(=O)NC(CP(=O)(O)O)C(=O)O)S(C)(=O)=O)nn(CC(F)(F)F)c23)c([C@H](Cc2cc(F)cc(F)c2)NC(=O)Cn2nc(C(F)(F)F)c3c2C(F)(F)[C@@H]2C[C@H]32)n1)S(C)(=O)=O` (stereo partly drawn) [Compound 56, 2-(3-(4-chloro-7-(2-((S)-1-(2-((3bS,4aR)-5,5-difluoro-3-(trifluoromethyl)-3b,4,4a,5-tetrahydro-1H-cyclopropa[3,4]cyclopenta[1,2-c]pyrazol-1-yl)acetamido)-2-(3,5-difluorophenyl)ethyl)-6-(3-methyl-3-(methylsulfonyl)but-1-yn-1-yl)pyridin-3-yl)-1-(2,2,2-trifluoroethyl)-1H-indazol-3-yl)-3-(methylsulfonyl)ureido)-3-phosphonopropanoic acid] are 3 μM, 42 μM, 1.08 mg/mL (≈ 930 µM) and 1.59 mg/mL (≈ 1370 µM).
For `CC(C)(C#Cc1ccc(-c2ccc(Cl)c3c(N(C(=O)N[C@@H](COC(=O)C(=O)O)C(=O)O)S(C)(=O)=O)nn(CC(F)(F)F)c23)c([C@H](Cc2cc(F)cc(F)c2)NC(=O)Cn2nc(C(F)(F)F)c3c2C(F)(F)[C@@H]2C[C@H]32)n1)S(C)(=O)=O` [Compound 60, O-(carboxycarbonyl)-N-((4-chloro-7-(2-((S)-1-(2-((3bS,4aR)-5,5-difluoro-3-(trifluoromethyl)-3b,4,4a,5-tetrahydro-1H-cyclopropa[3,4]cyclopenta[1,2-c]pyrazol-1-yl)acetamido)-2-(3,5-difluorophenyl)ethyl)-6-(3-methyl-3-(methylsulfonyl)but-1-yn-1-yl)pyridin-3-yl)-1-(2,2,2-trifluoroethyl)-1H-indazol-3-yl)(methylsulfonyl)carbamoyl)-L-serine], in that order: 1 μM, 14 μM, 0.364 mg/mL (≈ 311 µM) and 0.756 mg/mL (≈ 645 µM).
With `CN(CCCC(=O)O)C(=O)N(c1nn(CC(F)(F)F)c2c(-c3ccc(C#CC(C)(C)S(C)(=O)=O)nc3[C@H](Cc3cc(F)cc(F)c3)NC(=O)Cn3nc(C(F)(F)F)c4c3C(F)(F)[C@@H]3C[C@H]43)ccc(Cl)c12)S(C)(=O)=O` [Compound 46, 4-(3-(4-chloro-7-(2-((S)-1-(2-((3bS,4aR)-5,5-difluoro-3-(trifluoromethyl)-3b,4,4a,5-tetrahydro-1H-cyclopropa[3,4]cyclopenta[1,2-c]pyrazol-1-yl)acetamido)-2-(3,5-difluorophenyl)ethyl)-6-(3-methyl-3-(methylsulfonyl)but-1-yn-1-yl)pyridin-3-yl)-1-(2,2,2-trifluoroethyl)-1H-indazol-3-yl)-1-methyl-3-(methylsulfonyl)ureido)butanoic acid], the “pH 2 solubility” value under setting [3] amounted to 1 μM. Under setting [4], the “pH 7 solubility” value is reported as 10 μM. Also, the solubility in data set [2] (setting [5]) was 0.009 mg/mL (≈ 8.1 µM); in data set [2] (setting [6]) it was 0.003 mg/mL (≈ 2.7 µM).

The values are drawn from US12404262B2 (priority 2021, dated 2025).
